Assay results published in patent publication US20220089578A1, “COMPOUNDS AS GLP-1R AGONISTS” (Terns Pharmaceuticals, Inc., priority 2020, published 2022).

Target: human GLP-1R (Homo sapiens, UniProt P43220)
Test: GLP-1R Cell Assay 2: CHO-K1_hGLP-1Rlow_clone10 cells, LANCE Ultra cAMP TR-FRET assay
Type: cell-based
Parameters: expressed in transfected cells
Conditions: Table 3, percent activation relative to control GLP-1 peptide agonist
Description: Stable cell lines expressing high and low GLP-1R surface expression were generated in CHO-K1 cells transfected (Fugene 6) with a puromycin selectable DNA plasmid encoding human GLP-1R receptor (accession number: NM_002062.5) under control of an EF1A promoter. Transfected cells were seeded into 24-well plates (9,000 cells/well) containing complete medium and incubated in a humidified incubator at 37° C. with 5% carbon dioxide. After overnight incubation, medium was replaced with complete medium supplemented with puromycin (6 μg/mL) and refreshed every 2-3 days to select for stably transfected cells. Individual pools of selected cells were expanded prior to analysis for responsiveness to GLP-1 control peptide using a TR-FRET assay to detect cAMP (LANCE Ultra cAMP Assay, Perkin Elmer). Briefly, cells were collected in Versene solution, plated in 384-well plates (1,000 cells/well) and combined with serially diluted GLP-1R control peptide (10 nL) using an acoustic dispenser (ECHO). Plates were incubated for 30 minutes at 25° C. prior to the addition of EU-cAMP tracer (5 μL) and Ulight-anti-cAMP (5 μL) reagents to each well, followed by 15 minutes incubation at 25° C. TR-FRET signal was detected using an EnVision Multimode Plate Reader (excitation=320 nm; emission=615 and 655 nm). Dose-response curves were used to generate EC50 values as a measure of responsiveness to the GLP-1R control peptide. Selected cell lines were monitored for responsiveness over multiple passages to ensure stability. […] Briefly, GLP-1R expression was analyzed by flow cytometry using a fluorescein-labeled Exendin-4 peptide fluorescent probe (FLEX). Cells were harvested in Versene solution and washed 3-times with PBS+0.5% BSA before incubation with FLEX reagent (10 μM) for 2 hours at room temperature. After incubation, cells were washed 3-times in PBS+0.5% BSA before final resuspension in PBS prior to analysis by flow cytometry to measure FLEX mean fluorescence intensity (MFI) as a measure of GLP-1R expression on the cell surface.
For compound testing in the CHO-K1_hGLP-1Rlow_clonel0 cell lines, cells were seeded in 384-well plates (1,000 cells/well). Test compounds were serially diluted in DMSO (10-point, 3-fold dilution), added to wells using an ECHO dispenser (10 nL/well) and plates were centrifuged for 1 min and agitated for 2 min at room temperature prior to 30-minute incubation at 25° C. After incubation, Eu-cAMP (5 p,L) and Ulight-anti-cAMP (5 μL) reagents were added to each well, followed by centrifugation for 1 minute, agitation for 2 minutes at room temperature, and final incubation of the plates at 25° C. for 15 minutes. Plates were read using an EnVision microplate reader (excitation=320 nm; emission=615 and 655 nm). Dose-response curves were generated from duplicate wells based on percent activation calculated relative to a control GLP-1 peptide agonist that was run in parallel. EC50 values were determined by fitting percent activation as a function of compound concentration using the Hill equation (XLfit).

human GLP-1R, sequence (P43220 24-463): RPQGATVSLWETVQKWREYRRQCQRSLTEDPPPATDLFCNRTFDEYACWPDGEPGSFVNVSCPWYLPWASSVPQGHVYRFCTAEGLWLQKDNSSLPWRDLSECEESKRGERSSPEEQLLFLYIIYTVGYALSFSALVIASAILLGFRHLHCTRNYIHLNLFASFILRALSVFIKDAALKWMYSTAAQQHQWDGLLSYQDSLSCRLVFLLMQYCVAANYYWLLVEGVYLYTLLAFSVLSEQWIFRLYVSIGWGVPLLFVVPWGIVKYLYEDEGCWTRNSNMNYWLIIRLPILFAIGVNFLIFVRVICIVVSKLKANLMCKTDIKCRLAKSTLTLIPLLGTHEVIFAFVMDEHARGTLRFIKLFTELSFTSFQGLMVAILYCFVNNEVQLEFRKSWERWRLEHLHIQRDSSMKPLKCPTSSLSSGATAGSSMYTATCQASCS

Compound | EC50 [nM]
O=C(O)c1ccc2nc(CN3CCC(c4cccc(OCc5cc6cccc(C(F)(F)F)c6o5)n4)CC3)n(C[C@@H]3CCO3)c2c1 [Compound 177, (S)-1-(oxetan-2-ylmethyl)-2-((4-(6-((7-(trifluoromethyl)benzofuran-2-yl)methoxy)pyridin-2-yl)piperidin-1-yl)methyl)-1H-benzo[d]imidazole-6-carboxylic acid] | 6.73
CCn1cncc1Cn1c(CN2CC[C@]3(c4nccc(N5CCc6cc(C#N)cc(F)c6C5)n4)C[C@@H]3C2)nc2ccc(C(=O)O)cc21 (single isomer, unassigned) [Compound 186-P2] | > 10000
O=C(O)c1ccc2nc(CN3CCC(c4cccc(OCc5coc6c(C(F)(F)F)cccc56)n4)CC3)n(C[C@@H]3CCO3)c2c1 [Compound 175, (S)-1-(oxetan-2-ylmethyl)-2-((4-(6-((7-(trifluoromethyl)benzofuran-3-yl)methoxy)pyridin-2-yl)piperidin-1-yl)methyl)-1H-benzo[d]imidazole-6-carboxylic acid] | 14.5
O=C(O)c1ccc2nc(CN3CCC(c4cccc(OCc5csc6c(C(F)(F)F)cccc56)n4)CC3)n(C[C@@H]3CCO3)c2c1 [Compound 174, (S)-1-(oxetan-2-ylmethyl)-2-((4-(6-((7-(trifluoromethyl)benzo[b]thiophen-3-yl)methoxy)pyridin-2-yl)piperidin-1-yl)methyl)-1H-benzo[d]imidazole-6-carboxylic acid] | 63.4
O=C(O)c1ccc2nc(CN3CCC(c4cccc(OCc5coc6c(C(F)(F)F)cc(Br)cc56)n4)CC3)n(C[C@@H]3CCO3)c2c1 [Compound 182, (S)-2-((4-(6-((5-bromo-7-(trifluoromethyl)benzofuran-3-yl)methoxy)pyridin-2-yl)piperidin-1-yl)methyl)-1-(oxetan-2-ylmethyl)-1H-benzo[d]imidazole-6-carboxylic acid] | 33.9
O=C(O)c1ccc2nc(CN3CCC(c4cccc(OCc5nc(C6CC6)cs5)n4)CC3)n(C[C@@H]3CCO3)c2c1 [Compound 181, (S)-2-((4-(6-((4-cyclopropylthiazol-2-yl)methoxy)pyridin-2-yl)piperidin-1-yl)methyl)-1-(oxetan-2-ylmethyl)-1H-benzo[d]imidazole-6-carboxylic acid] | 22.8
O=C(O)c1ccc2nc(CN3CCC(c4cccc(OCc5nc(C(F)(F)F)cs5)n4)CC3)n(C[C@@H]3CCO3)c2c1 [Compound 179, (S)-1-(oxetan-2-ylmethyl)-2-((4-(6-((4-(trifluoromethyl)thiazol-2-yl)methoxy)pyridin-2-yl)piperidin-1-yl)methyl)-1H-benzo[d]imidazole-6-carboxylic acid] | 36.6
O=C(O)c1ccc2nc(CN3CCC(c4cccc(Oc5ccccc5)n4)CC3)n(C[C@@H]3CCO3)c2c1 [Compound 183, (S)-1-(oxetan-2-ylmethyl)-2-((4-(6-phenoxypyridin-2-yl)piperidin-1-yl)methyl)-1H-benzo[d]imidazole-6-carboxylic acid] | > 10000
CCn1cncc1Cn1c(CN2CC[C@@]3(c4nccc(OCc5ccc(C#N)cc5F)n4)C[C@H]3C2)nc2ccc(C(=O)O)cc21 [Compound 185-P1, 2-(((1R,6S)-6-(4-((4-cyano-2-fluorobenzyl)oxy)pyrimidin-2-yl)-3-azabicyclo[4.1.0]heptan-3-yl)methyl)-1-((1-ethyl-1H-imidazol-5-yl)methyl)-1H-benzo[d]imidazole-6-carboxylic acid] | 1.69
CCn1cncc1Cn1c(CN2CC[C@]3(c4nccc(OCc5ccc(C#N)cc5F)n4)C[C@@H]3C2)nc2ccc(C(=O)O)cc21 [Compound 185-P2, 2-(((1S,6R)-6-(4-((4-cyano-2-fluorobenzyl)oxy)pyrimidin-2-yl)-3-azabicyclo[4.1.0]heptan-3-yl)methyl)-1-((1-ethyl-1H-imidazol-5-yl)methyl)-1H-benzo[d]imidazole-6-carboxylic acid] | 18.1

More lines, now with the values ahead:

EC50 [nM] | Compound
1.14 | CCn1cncc1Cn1c(CN2CCC(c3cccnc3OCc3ccc(C#N)cc3F)CC2)nc2ccc(C(=O)O)cc21 [Compound 169, 2-((4-(2-((4-cyano-2-fluorobenzyl)oxy)pyridin-3-yl)piperidin-1-yl)methyl)-1-((1-ethyl-1H-imidazol-5-yl)methyl)-1H-benzo[d]imidazole-6-carboxylic acid]
215 | CCn1cccc1Cn1c(CN2CCC(c3cccc(OCc4nc5c(F)cc(C#N)cc5s4)n3)CC2)nc2ccc(C(=O)O)cc21 [Compound 180, 2-((4-(6-((6-cyano-4-fluorobenzo[d]thiazol-2-yl)methoxy)pyridin-2-yl)piperidin-1-yl)methyl)-1-((1-ethyl-1H-pyrrol-2-yl)methyl)-1H-benzo[d]imidazole-6-carboxylic acid]
7.56 | CCn1nncc1Cn1c(CN2CCC(c3cccc(OCc4nc5c(F)cc(C#N)cc5s4)n3)CC2)nc2ccc(C(=O)O)cc21 [Compound 178, 2-((4-(6-((6-cyano-4-fluorobenzo[d]thiazol-2-yl)methoxy)pyridin-2-yl)piperidin-1-yl)methyl)-1-((1-ethyl-1H-1,2,3-triazol-5-yl)methyl)-1H-benzo[d]imidazole-6-carboxylic acid]
119 | N#Cc1cc(F)c2c(c1)CCN(c1cccc(C3CCN(Cc4nc5ccc(C(=O)O)cc5n4Cc4ncco4)CC3)n1)C2 [Compound 172, 2-((4-(6-(6-cyano-8-fluoro-3,4-dihydroisoquinolin-2(1H)-yl)pyridin-2-yl)piperidin-1-yl)methyl)-1-(oxazol-2-ylmethyl)-1H-benzo[d]imidazole-6-carboxylic acid]
646 | CCn1cncc1Cn1c(CN2CC[C@@]3(c4nccc(N5CCc6cc(C#N)cc(F)c6C5)n4)C[C@H]3C2)nc2ccc(C(=O)O)cc21 [Compound 186-P1]
13.2 | N#Cc1cccc2c(COc3cccc(C4CCN(Cc5nc6ccc(C(=O)O)cc6n5C[C@@H]5CCO5)CC4)n3)csc12 [Compound 187, (S)-2-((4-(6-((7-cyanobenzo[b]thiophen-3-yl)methoxy)pyridin-2-yl)piperidin-1-yl)methyl)-1-(oxetan-2-ylmethyl)-1H-benzo[d]imidazole-6-carboxylic acid]
1410 | CCn1ccnc1Cn1c(CN2CCC(c3cccc(N4CCc5cc(C#N)cc(F)c5C4)n3)CC2)nc2ccc(C(=O)O)cc21 [Compound 171, 2-((4-(6-(6-cyano-8-fluoro-3,4-dihydroisoquinolin-2(1H)-yl)pyridin-2-yl)piperidin-1-yl)methyl)-1-((1-ethyl-1H-imidazol-2-yl)methyl)-1H-benzo[d]imidazole-6-carboxylic acid]
120 | CCn1cncc1Cn1c(CN2CCC(c3cccnc3OCc3ccc(C(N)=O)cc3F)CC2)nc2ccc(C(=O)O)cc21 [Compound 170, 2-((4-(2-((4-carbamoyl-2-fluorobenzyl)oxy)pyridin-3-yl)piperidin-1-yl)methyl)-1-((1-ethyl-1H-imidazol-5-yl)methyl)-1H-benzo[d]imdiazole-6-carboxylic acid]
13.2 | N#Cc1cccc2c(COc3cccc(C4CCN(Cc5nc6ccc(C(=O)O)cc6n5C[C@@H]5CCO5)CC4)n3)csc12 [Compound 173, (S)-2-((4-(6-((7-cyanobenzo[b]thiophen-3-yl)methoxy)pyridin-2-yl)piperidin-1-yl)methyl)-1-(oxetan-2-ylmethyl)-1H-benzo[d]imidazole-6-carboxylic acid]
1590 | CC1=NCC(Cn2c(CN3CCC(c4cccc(OCc5ccc(C#N)cc5F)n4)CC3)nc3ccc(C(=O)O)cc32)O1 (single isomer, unassigned) [Compound 176, 2-((4-(6-((4-cyano-2-fluorobenzyl)oxy)pyridin-2-yl)piperidin-1-yl)methyl)-1-((2-methyl-4,5-dihydrooxazol-5-yl)methyl)-1H-benzo[d]imidazole-6-carboxylic acid]
